According to patent EP0993454B1, “BENZO(5,6)CYCLOHEPTA(1,2B)PYRIDINE DERIVATIVES USEFUL FOR INHIBITION OF FARNESYL PROTEIN TRANSFERASE” (SCHERING CORPORATION, priority 1997, dated 1998):

Target: farnesyl protein transferase (Homo sapiens, UniProt P49354+P49356)
Assay: FPT IC50 (inhibition of farnesyl protein transferase, in vitro enzyme assay)
Assay type: biochemical
Conditions: procedure of WO 95/10516, one collective range stated for the five listed compounds
Experimental: FPT IC50 (inhibition of farnesyl protein transferase, in vitro enzyme assay) and COS Cell IC50 (Cell-Based Assay) were determined following the assay procedures described in WO 95/10516, published April 20, 1995. GGPT IC50 (inhibition of geranylgeranyl protein transferase, in vitro enzyme assay), Cell Mat Assay, and anti-tumor activity (in vivo anti-tumor studies) could be determined by the assay procedures described in WO 95/10516. The disclosure of WO 95/10516 is incorporated herein by reference thereto.

Structure (SMILES) | IC50 [nM]
O=C(CC1CCNCC1)N1CCC(C2(O)c3ncc(Br)cc3CCc3cc(Cl)cc(Br)c32)CC1 (centres unmarked) [2 Step A] | 2 to 42
NC(=O)CN1CCC(CC(=O)N2CCC(C3(O)c4ncc(Br)cc4CCc4cc(Cl)cc(Br)c43)CC2)CC1 (centres unmarked) [Example 3, 4-[2-[4-(3,10-dibromo-8-chloro-6,11-dihydro-11-hydroxy-5H-benzo[5,6]cyclohepta-[1,2-B]pyridin-11-yl)-1-piperidinyl]-2-oxoethyl]-1-piperidineacetamide] | 2 to 42
